Measured values reported in patent EP0619297B1, “Fungicides for the control of take-all desease of plants” (MONSANTO COMPANY, priority 1993, dated 1994).
Converted amounts (≈) assume the structure as drawn. Where two headings read alike, the source gives them in different places.

Tests used:
[1] = tested on: Gaeumannomyces graminis var. tritici (Ggt); test: In vitro assay: mycelial growth on minimal media agar plates (Percent Inhibition; IC50); assay type: cell-based; conditions: for inhibition at 0.1 ppm: read-out: In vitro(ppm) 0.1, Percent Inhibition; for inhibition at 1 ppm: read-out: In vitro(ppm) 1, Percent Inhibition; for inhibition at 10 ppm: read-out: In vitro(ppm) 10, Percent Inhibition; for IC50: interpolated from percent inhibition at 1, 0.1, 0.01, 0.001 and 0.0001 ppm
Experimental: The test compounds (0.25 mL of an appropriate stock solution in acetone) are incorporated into 25 mL minimal media agar [prepared by autoclaving a solution of 17.5 g Czapek Dox broth (Difco), 7.5 g purified agar or Bacto-agar (Difco), and 500 mL distilled/deionized water, and then adding 50 µL of 1 mg/mL thiamine hydrochloride and 50 µL of 1 mg/mL biotin in 5% ethanol] and plates are prepared.
Each plate is inoculated by placing in a triangular shape three 4-mm plugs of Gaeumannomyces graminis var. tritici (Ggt) grown on the minimal media agar described above. The plates are incubated in the dark at 19 - 20 °C for 4 to 5 days. The growth of the fungus is measured as the diameter of the mycelial growth. The result is expressed as Percent Inhibition, calculated as [1 - [(mm growth on treated plate - 4)/(mm growth on control plate - 4)]] x 100.
To determine IC5O values, an in vitro assay was run on each compound at the concentrations of 1, 0.1, 0.01, 0.001, and 0.0001 ppm. The percent inhibition was calculated for each concentration using the equation described in the in vitro assay under the section on Biological Assays. Using the two ordered pairs of (concentration, % inhibition) that bracket 50% inhibition of fungal growth, the concentration for 50% inhibition is calculated from the following equation. IC50 = [(50-I2 )C1 + (I1 -50)C2 ]/(I1 -I2 ), [formula] where C1 = 10C2.

Ggt [2] = test: In vivo assay: control of Ggt on wheat in 3-inch pots with infested soil, rated after four weeks;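 for In vivo(ppm) 0.1, percent disease control: rate is mg active ingredient per pot in 3 mL solution not ppm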;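 for In vivo(ppm) 0.5, percent disease control: rate is mg active ingredient per pot in 3 mL solution not ppm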; parameters: species or system Gaeumannomyces graminis var. tritici; conditions: Gaeumannomyces graminis, 672 h; for pest or weed control at 0.02 mg/pot: read-out: In vivo(ppm) 0.02mg/pot, percent disease control; for pest or weed control at 0.1 mg/pot: read-out: In vivo(ppm) 0.1, percent disease control; for pest or weed control at 0.5 mg/pot: read-out: In vivo(ppm) 0.5, percent disease control
Experimental: Compounds are tested for control of Ggt on 'Bergen' or 'Anza' varieties of wheat grown in 3-inch square pots containing soil infested with Ggt. The infestation is accomplished by mixing the soil with an inoculum prepared by growing Ggt on 1/4 strength potato dextrose agar (4.875 g potato dextrose agar, 5.0 g Bacto agar, 500 mL distilled, deionized water) in plates and using plugs from the plates to infest sterile oats (400 cc whole oats, 350 mL deionized water, autoclaved). After a one-month incubation period at room temperature, the oats are dried and mixed with the soil at 4% v/v. Four wheat seeds are placed on top of the soil in each pot. […] Five pots are used for each treatment level and the controls, which are untreated, inoculated and non-inoculated pots. After one hour drying time, the seeds are covered with more of the appropriate soil and a layer of vermiculite. The pots are placed in a growth chamber and watered each day. After four weeks, each pot is evaluated for evidence of disease by examination of the seminal roots of each plant under a dissecting microscope. A 0 to 5 rating scale having the following meanings is used: • 0 = no runner hyphae or lesions present • 1 = runner hyphae and a few small lesions present on <10% of root system • 2 = runner hyphae and small lesions present on 10 - 25% of root system • 3 = runner hyphae and lesions present on 25 - 50% of root system • 4 = runner hyphae and many, large, coalescing lesions on >50% of root system • 5 = root system and culm completely inundated with lesions and runner hyphae
From each set of five replicates a high or low score may be eliminated to assure the best representative scores are used to calculate a replicate mean by averaging the remaining scores. This mean score is then compared to the untreated control score and a percent disease control is calculated.

Ggt [3] = test: In vivo (8 week) seed treatment assay: Large Pot Greenhouse Take-All Assay; parameters: species or system Gaeumannomyces graminis var. tritici; conditions: wheat, 6-inch pots, roots rated after 7-10 weeks; for % control (rates are g/kg seed) 0.125: seed treatment 0.125 g/kg seed; for % control (rates are g/kg seed) 0.25: seed treatment 0.25 g/kg seed; for % control (rates are g/kg seed) 0.5: seed treatment 0.5 g/kg seed; for % control (rates are g/kg seed) 1 g: seed treatment 1 g/kg seed
Experimental: An advanced 8-week seed treatment in vivo assay in soil is as follows.
Compounds are tested for control of Ggt on 'Bergen' or 'Anza' varieties of wheat grown in 6-inch round pots containing soil (equal to thirds of Metro-mix, sand, and silt-loam field soil, all steam sterilized). Seeds are treated with a solution of compound of the present invention at 10,000 ppm stock solution in acetone. 20 mg in 2 ml will treat 10 g of seed at each of 4 rates. Using a 10,000 ppm stock for each compound make the following dilutions series:
A treatment jar is rinsed 2 times with 3 ml of actone. Then 1 ml of the solution is swirled to cover the base of the jar. 10 g of seed are added to the jar and capped after which the jar is swirled and shaken until the seeds get a rapid and even coverage. After about 30-50 seconds the lid is removed as the shaking is continued. After 1 minute the jar is set down to dry. When dry, the seed are poured back into the envelope for either planting in the pots or stored until such planting. The method of planting is as follows:
The 6-inch pots are packed to their ledge with the above soil mix.
a) Treated seed is placed on the surface of the soil (packed to ledge) at the rate of 8 seeds per pot with the seeds about 2-3 inches apart. 5 pots (replicates) are planted per treatment. b) 15 ml of oat inoculum (about 4g) are measured and sprinkled evenly over the soil surface of each pot. c) The soil/seed/inoculum is covered with 180 ml of soil mix (same as above). A 150 ml beaker filled to the top edge-is about 180 ml. d) Initially each of the prepared pots is watered lightly several times to wet soil without washing out seeds. e) In cool winter months the prepared pots are left in the greenhouse at 16° - 18°C with only minimal supplemental light. In warmer months the prepared pots are put in a growth chamber set at 17°C for 3-4 weeks to establish disease, then placed in a greenhouse until harvest. The wheat is harvested, washed, and the roots are rated after 7-10 weeks. f) A % of diseased root area is assigned values using 1, 5, 10, 20, 30, 40, 50, 60, 80, or 100 %. Each pot of plants gets a single rating.

[4] = 0.1 ppm in agar, 19 - 20 °C, 4 to 5 days
[5] = 1 ppm in agar, 19 - 20 °C, 4 to 5 days
[6] = 10 ppm in agar, 19 - 20 °C, 4 to 5 days
[7] = rate 0.02mg/pot, wheat, soil infested with Ggt, after four weeks
[8] = rate 0.1 (head prints ppm, head line ends mg/pot), wheat, soil infested with Ggt, after four weeks, N = no control
[9] = rate 0.5 (head prints ppm, head line ends mg/pot), wheat, soil infested with Ggt, after four weeks, N = no control

Structure (SMILES) | inhibition at 0.1 ppm [1, 4] | inhibition at 1 ppm [1, 5] | inhibition at 10 ppm [1, 6] | pest or weed control at 0.02 mg/pot (Ggt [2]; [7]) | pest or weed control at 0.1 mg/pot (Ggt [2]; [8]) | pest or weed control at 0.5 mg/pot (Ggt [2]; [9]) | % control (rates are g/kg seed) 0.125 (Ggt [3]) | % control (rates are g/kg seed) 0.25 (Ggt [3]) | % control (rates are g/kg seed) 0.5 (Ggt [3]) | % control (rates are g/kg seed) 1 g (Ggt [3]) | IC50 [1] | inhibition at 0.1 ppm [1] | inhibition at 1 ppm [1] | inhibition at 10 ppm [1] | pest or weed control at 0.02 mg/pot (Ggt [2]; soil) | pest or weed control at 0.1 mg/pot (Ggt [2]; soil) | pest or weed control at 0.5 mg/pot (Ggt [2]; soil)
CCNC(=O)c1c(OC(C)(C)CC)ccc2ccccc12 [Example 26, N-ethyl 2-[(1,1-dimethylpropyl)oxy]-1-naphthamide] | 76% | 95% | 98% | 17% | 56% | 84% | 25% | 25% | 4% | 25% | – | – | – | – | – | – | –
C=CCNC(=O)c1c(OC(C)(C)CC)ccc2ccccc12 [Example 27, N-allyl 2-[(1,1-dimethylpropyl)oxy]-1-naphthamide] | 93% | 98% | 98% | 27% | 75% | 95% | 21% | 21% | 0% | 25% | 8.44 ng/mL (≈ 0.0284 µM) | – | – | – | – | – | –
C=CCNC(=O)c1c(OC(C)(CC)CC)ccc2ccccc12 [Example 29, N-allyl 2-[(1,1-diethylethyl)oxy]-1-naphthamide] | 96% | 96% | 96% | 40% | 57% | 75% | – | 0% | 4% | 4% | 8.14 ng/mL (≈ 0.0261 µM) | – | – | – | – | – | –
CCN(CC)C(=O)c1c(OC(C)(CC)CC)ccc2ccccc12 [Example 30, N,N-diethyl 2-[(1,1-diethylethyl)oxy]-1-naphthamide] | 91% | 96% | 96% | 31% | 43% | 28% | – | 22% | 0% | 13% | 7.43 ng/mL (≈ 0.0227 µM) | – | – | – | – | – | –
CCCNC(=O)c1c(OC(CC)(CC)CC)ccc2ccccc12 [Example 34, N-propyl 2-[(1,1-diethylpropyl)oxy]-1-naphthamide] | 95% | 95% | 95% | 18% | 44% | 49% | – | 17% | 0% | 9% | 6.62 ng/mL (≈ 0.0202 µM) | – | – | – | – | – | –
C=CCNC(=O)c1c(OC2(C)CCCC2)ccc2ccccc12 [Example 37, N-allyl 2-[(1-methyl-1-cyclopentyl)oxy]-1-naphthamide] | 93% | 98% | 98% | 28% | 53% | 63% | 4% | 4% | 4% | 4% | 7.43 ng/mL (≈ 0.024 µM) | – | – | – | – | – | –
C=CCNC(=O)c1c(OC2(C)CCCCC2)ccc2ccccc12 [Example 39, N-allyl 2-[(1-methyl-1-cyclohexyl)oxy]-1-naphthamide] | 57% | 96% | 96% | 0% | 11% | 28% | – | – | – | – | – | – | – | – | – | – | –
CCCNC(=O)c1c(OC2(C)CCCCC2)ccc2ccccc12 [Example 40, N-propyl 2-[(1-methyl-1-cyclohexyl)oxy]-1-naphthamide] | 74% | 83% | 98% | 3% | 32% | 60% | – | 13% | 13% | 22% | 63.6 ng/mL (≈ 0.195 µM) | – | – | – | – | – | –
CCNC(=O)c1c([Si](C)(C)C)ccc2sccc12 [Example 41, N-ethyl 5-trimethylsilyl benzothiophene-4-carboxamide] | – | – | – | – | – | – | – | – | – | – | – | 98% | 98% | 100% | 75% | 99% | 100%
CCNC(=O)c1c([Si](C)(C)C)ccc2occc12 [Example 42, N-ethyl 5-trimethylsilyl benzofuran-4-carboxamide] | – | – | – | – | – | – | – | – | – | – | – | 90% | 98% | 100% | 68% | 87% | 91%
CCNC(=O)c1c([Si](C)(C)C)ccc2ccsc12 [Example 43, N-ethyl 6-trimethylsilyl benzothiophene-7-carboxamide] | – | – | – | – | – | – | – | – | – | – | – | 98% | 100% | 100% | 50% | 79% | 88%
